Assays:
U937 cancer cell line = test: Cell inhibition assay (SRB cell viability), U937; assay type: cell-based; settings: Homo sapiens, U-937, U937 cells, 72 h, IC50 range
Summary of the method: (§1)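 Log-phase Hela, U937 and HUT cells were seeded at 1000 cells/well, grown 24 h, then exposed to compound (20 uM final) for 72 h. Viability was read by sulphorhodamine B staining and expressed as % inhibition relative to DMSO control. IC50 values came from sigmoidal variable-slope fits of eight concentrations.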

[1] = target: T1, histone deacetylase activity (HeLa nuclear extract); test: HDAC fluorescent activity assay (Biomol Fluor de Lys), HeLa nuclear extract; assay type: biochemical; settings: Fluor de Lys substrate, IC50 range
T1 construct: Histone deacetylase activity from crude nuclear extract derived from HeLa cells was used for screening
Summary of the method: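 Crude HeLa nuclear extract (20 mM Hepes, 100 mM KCl, 0.2 mM EDTA, 0.5 mM DTT, 0.2 mM PMSF, 20% glycerol) incubated with acetyl-lysine Fluor de Lys substrate ± inhibitor; developer generates fluorophore. Background-subtracted % of vehicle control; IC50 from eight-point variable-slope sigmoidal fit.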

HUT cancer cell line = test: Cell inhibition assay (SRB cell viability), HUT; assay type: cell-based; settings: HUT cells, 72 h, IC50 range
Summary of the method: as §1

Hela cancer cell line = test: Cell inhibition assay (SRB cell viability), Hela; assay type: cell-based; settings: Homo sapiens, HeLa, 72 h, Hela cells, IC50 range
Summary of the method: as §1

Structure (SMILES) | IC50 (U937 cancer cell line) | IC50 [1] | IC50 (HUT cancer cell line) | IC50 (Hela cancer cell line)
CCOC(=O)[C@H](Cc1ccccc1)NC(=O)C1CCCN1C(=O)CCCCCCC(=O)NO (stereo partly drawn) [Compound 55, (S)-2-{[1-(7-Hydroxycarbamoyl-heptanoyl)-pyrrolidine-2-carbonyl]-amino}-3-phenyl-propionic acid ethyl ester] | > 3.3 µM | > 1 µM | > 3.3 µM | > 3.3 µM
CC(C)(C)OC[C@H](NCc1ccc(CNCc2ccc3cc(C(=O)NO)sc3c2)cc1)C(=O)OC1CCCC1 [Compound 109, (S)-3-tert-Butoxy-2-(4-{[(2-hydroxycarbarnoyl-benzo[b]thiophen-6-ylmethyl)-amino]-methyl}-benzylamino)-propionic acid cyclopentyl ester] | < 0.33 µM | < 0.1 µM | 0.33 to 3.3 µM | 0.33 to 3.3 µM
CC(C)(C)OC[C@H](NCc1cccc(NC(=O)CCCCCCC(=O)NO)c1)C(=O)OC1CCCC1 [Compound 34, (S)-3-tert-Butoxy-2-[3-(7-hydroxycarbamoyl-heptanoylamino)-benzylamino]-propionic acid cyclopentyl ester] | < 0.33 µM | 0.101 to 1 µM | 0.33 to 3.3 µM | 0.33 to 3.3 µM
CC(OC(C)(C)C)[C@H](NCc1ccc(CNCc2ccc3cc(C(=O)NO)sc3c2)cc1)C(=O)OC1CCCC1 (stereo partly drawn) [Compound 108, (S)-3-tert-Butoxy-2-(4-{[(2-hydroxycarbamoyl-benzo[b]thiophen-6-ylmethyl)-amino]-methyl}-benzylamino)-butyric acid cyclopentyl ester] | 0.33 to 3.3 µM | 0.101 to 1 µM | 0.33 to 3.3 µM | 0.33 to 3.3 µM
O=C(CCCCCCC(=O)Nc1ccc(CN[C@H](C(=O)OC2CCCC2)C2CCCCC2)cc1)NO [Compound 86, (S)-Cyclohexyl-[4-(7-hydroxycarbamoyl-heptanoylamino)-benzylamino]-acetic acid cyclopentyl ester] | < 0.33 µM | 0.101 to 1 µM | 0.33 to 3.3 µM | > 3.3 µM
CCOC(=O)[C@H](Cc1ccccc1)NC(=O)[C@@H]1Cc2c([nH]c3ccccc23)CN1C(=O)CCCCCCC(=O)NO [Compound 7, (S)-2-{[(S)-2-(7-Hydroxycarbamoyl-heptanoyl)-2,3,4,9-tetrahydro-1H-beta-carboline-3-carbonyl]-amino}-3-phenyl-propionic acid ethyl ester] | 0.33 to 3.3 µM | 0.101 to 1 µM | 0.33 to 3.3 µM | > 3.3 µM
CC(C)C[C@H](NCc1ccc(CNCc2ccc3cc(C(=O)NO)sc3c2)cc1)C(=O)OC1CCCC1 [Compound 122] | < 0.33 µM | < 0.1 µM | 0.33 to 3.3 µM | 0.33 to 3.3 µM
O=C(CCCCCCC(=O)N1CCc2ccc(C(=O)N[C@H](C(=O)OC3CCCC3)c3ccccc3)cc2C1)NO [Compound 15, (S)-{[2-(7-Hydroxycarbamoyl-heptanoyl)-1,2,3,4-tetrahydro-isoquinoline-7-carbonyl]-amino}-phenyl-acetic acid cyclopentyl ester] | 0.33 to 3.3 µM | > 1 µM | 0.33 to 3.3 µM | > 3.3 µM
O=C(CCCCCCC(=O)N1CCc2c([nH]c3ccccc23)C1CN[C@H](C(=O)OC1CCCC1)c1ccccc1)NO (stereo partly drawn) [Compound 42, (S)-{[2-(7-Hydroxycarbamoyl-heptanoyl)-2,3,4,9-tetrahydro-1H-beta-carbolin-1-ylmethyl]-amino}-phenyl-acetic acid cyclopentyl ester] | 0.33 to 3.3 µM | > 1 µM | 0.33 to 3.3 µM | 0.33 to 3.3 µM
O=C(CCCCCCC(=O)N1CCCC1C(=O)N[C@H](C(=O)OC1CCCC1)c1ccccc1)NO (stereo partly drawn) [Compound 53, (S)-{[1-(7-Hydroxycarbamoyl-heptanoyl)-pyrrolidine-2-carbonyl]-amino}-phenyl-acetic acid cyclopentyl ester] | > 3.3 µM | > 1 µM | > 3.3 µM | > 3.3 µM
O=C(CCCCCCC(=O)Nc1cccc(OCCCN[C@@H](Cc2ccccc2)C(=O)OC2CCCC2)c1)NO [Compound 75, (S)-2-{3-[3-(7-Hydroxycarbamoyl-heptanoylamino)-phenoxy]-propylamino}-3-phenyl-propionic acid cyclopentyl ester] | < 0.33 µM | < 0.1 µM | < 0.33 µM | 0.33 to 3.3 µM
CCOC(=O)[C@H](Cc1ccccc1)NC(=O)[C@H]1Cc2c([nH]c3ccccc23)CN1C(=O)CCCCCCC(=O)NO [Compound 5, (S)-2-{[(R)-2-(7-Hydroxycarbamoyl-heptanoyl)-2,3,4,9-tetrahydro-1H-beta-carboline-3-carbonyl]-amino}-3-phenyl-propionic acid ethyl ester] | 0.33 to 3.3 µM | 0.101 to 1 µM | 0.33 to 3.3 µM | 0.33 to 3.3 µM
O=C(NO)c1cc2ccc(CNCc3ccc(CN[C@@H](Cc4ccccc4)C(=O)OC4CCCC4)cc3)cc2s1 [Compound 104, (S)-2-(4-{[(2-Hydroxycarbamoyl-benzo[b]thiophen-6-ylmethyl)-amino]-methyl}-benzylamino)-3-phenyl-propionic acid cyclopentyl ester] | < 0.33 µM | 0.101 to 1 µM | 0.33 to 3.3 µM | 0.33 to 3.3 µM
O=C(CCCCCCC(=O)Nc1cccc(CN[C@@H](CCc2ccccc2)C(=O)OC2CCCC2)c1)NO [Compound 31, (S)-2-[3-(7-Hydroxycarbamoyl-heptanoylamino)-benzylamino]-4-phenyl-butyric acid cyclopentyl ester] | < 0.33 µM | 0.101 to 1 µM | 0.33 to 3.3 µM | 0.33 to 3.3 µM

Further lines, results first:

IC50 (U937 cancer cell line) | IC50 [1] | IC50 (HUT cancer cell line) | IC50 (Hela cancer cell line) | Structure (SMILES)
0.33 to 3.3 µM | 0.101 to 1 µM | 0.33 to 3.3 µM | > 3.3 µM | O=C(CCCCCCC(=O)Nc1ccc(C(=O)N[C@H](C(=O)OC2CCCC2)c2ccccc2)cc1)NO [Compound 17, (S)-[4-(7-Hydroxycarbamoyl-heptanoylamino)-benzoylamino]-phenyl-acetic acid cyclopentyl ester]
< 0.33 µM | < 0.1 µM | < 0.33 µM | 0.33 to 3.3 µM | O=C(CCCCCCC(=O)Nc1cccc(OCCCN[C@H](C(=O)OC2CCCC2)c2ccccc2)c1)NO [Compound 77, (S)-{3-[3-(7-Hydroxycarbamoyl-heptanoylamino)-phenoxy]-propylamino}-phenyl-acetic acid cyclopentyl ester]
0.33 to 3.3 µM | < 0.1 µM | 0.33 to 3.3 µM | 0.33 to 3.3 µM | O=C(CCCCCCC(=O)Nc1cccc(OCCCC(=O)N[C@H](C(=O)OC2CCCC2)c2ccccc2)c1)NO [Compound 92, (S)-{4-[3-(7-Hydroxycarbamoyl-heptanoylamino)-phenoxy]-butyrylamino}-phenyl-acetic acid cyclopentyl ester]
> 3.3 µM | > 1 µM | > 3.3 µM | > 3.3 µM | O=C(CCCCCCC(=O)N1CCc2ccc(C(=O)N[C@H](C(=O)O)c3ccccc3)cc2C1)NO [Compound 16, (S)-{[2-(7-Hydroxycarbamoyl-heptanoyl)-1,2,3,4-tetrahydro-isoquinoline-7-carbonyl]-amino}-phenyl-acetic acid]
> 3.3 µM | 0.101 to 1 µM | > 3.3 µM | > 3.3 µM | CCOC(=O)[C@H](Cc1ccccc1)NCc1cncc(NC(=O)CCCCCCC(=O)NO)c1 [Compound 66, (S)-2-{[5-(7-Hydroxycarbamoyl-heptanoylamino)-pyridin-3-ylmethyl]-amino}-3-phenyl-propionic acid ethyl ester]
0.33 to 3.3 µM | 0.101 to 1 µM | 0.33 to 3.3 µM | 0.33 to 3.3 µM | CCOC(=O)[C@H](CCc1ccccc1)NCc1cccc(NC(=O)CCCCCCC(=O)NO)c1 [Compound 29, (S)-2-[3-(7-Hydroxycarbamoyl-heptanoylamino)-benzylamino]-4-phenyl-butyric acid ethyl ester]
> 3.3 µM | 0.101 to 1 µM | > 3.3 µM | > 3.3 µM | O=C(CCCCCCC(=O)Nc1ccc(S(=O)(=O)N[C@H](C(=O)O)c2ccccc2)cc1)NO [Compound 23, (S)-[4-(7-Hydroxycarbamoyl-heptanoylamino)-benzenesulfonylamino]-phenyl-acetic acid]
> 3.3 µM | 0.101 to 1 µM | > 3.3 µM | > 3.3 µM | O=C(CCCCCCC(=O)Nc1ccc(C(=O)N[C@H](C(=O)O)c2ccccc2)cc1)NO [Compound 18, (S)-[4-(7-Hydroxycarbamoyl-heptanoylamino)-benzoylamino]-phenyl-acetic acid]
0.33 to 3.3 µM | > 1 µM | 0.33 to 3.3 µM | > 3.3 µM | CCOC(=O)[C@@H](NC(=O)[C@@H]1Cc2ccccc2CN1C(=O)CCCCCCC(=O)NO)c1ccccc1 [Compound 46, (S)-{[(S)-2-(7-Hydroxycarbamoyl-heptanoyl)-1,2,3,4-tetrahydro-isoquinoline-3-carbonyl]-amino}-phenyl-acetic acid ethyl ester]
> 3.3 µM | 0.101 to 1 µM | > 3.3 µM | > 3.3 µM | O=C(CCCCCCC(=O)N1Cc2[nH]c3ccccc3c2C[C@H]1C(=O)N[C@H](C(=O)O)c1ccccc1)NO [Compound 4, (S)-{[(S)-2-(7-Hydroxycarbamoyl-heptanoyl)-2,3,4,9-tetrahydro-1H-beta-carboline-3-carbonyl]-amino}-phenyl-acetic acid]
0.33 to 3.3 µM | 0.101 to 1 µM | 0.33 to 3.3 µM | 0.33 to 3.3 µM | O=C(CCCCCCC(=O)Nc1ccc(S(=O)(=O)N[C@H](C(=O)OC2CCCC2)c2ccccc2)cc1)NO [Compound 22, (S)-[4-(7-Hydroxycarbamoyl-heptanoylamino)-benzenesulfonylamino]-phenyl-acetic acid cyclopentyl ester]
